Data as given in patent US20250034185A1 (priority 2021, published 2025).

Test system: plasma enzymes
Settings: for P5P formed / relative P5P formed: Sprague Dawley, rat
Throughout, for P5P formed: test concentration or dose not given here.

Cc1ncc(COP(=O)(N[C@@H](C)C(=O)OC(C)C)Oc2ccccc2)c(CO)c1OC(=O)c1ccccc1 (stereo partly drawn) [Compound 15xvii, (2S)-Isopropyl 2-(((5-benzoyloxy-4-(hydroxymethyl)-6-methylpyridin-3-yl)methoxy)(phenoxy)phosphorylamino)propanoate]
P5P formed: 0.3 µM
relative P5P formed: 8.3%

[2H]C([2H])([2H])c1ncc(C([2H])([2H])OP(=O)(N[C@@H](C)C(=O)OC(C)C)Oc2ccccc2)c(CO)c1O (stereo partly drawn) [Compound 15xxxi]
P5P formed: 0.5 µM
relative P5P formed: 20.0%

CCC(CC)COC(=O)[C@H](C)NP(=O)(OCc1cnc(C)c(O)c1CO)Oc1ccccc1 (stereo partly drawn) [Compound 15xxxiv]
P5P formed: 0 µM
relative P5P formed: 0.0%

Cc1ncc(COP(=O)(N[C@@H](C)C(=O)OC(C)C)Oc2cccc3ccccc23)c(C=O)c1O (stereo partly drawn) [Compound 16iv, (2S)-Isopropyl 2-(((4-formyl-5-hydroxy-6-methylpyridin-3-yl)methoxy)(naphthalen-1-yloxy)phosphorylamino)propanoate]
P5P formed: 1.8 µM
relative P5P formed: 47.4%

Cc1ncc(COP(=O)(N[C@@H](C)C(=O)OCc2ccccc2)Oc2ccccc2)c(C=O)c1O (stereo partly drawn) [Compound 16ix, (2S)-Benzyl 2-(((4-formyl-5-hydroxy-6-methylpyridin-3-yl)methoxy)(phenoxy)phosphorylamino)propanoate]
P5P formed: 10.3 µM
relative P5P formed: 98.1%

Cc1ncc(COP(=O)(N[C@@H](C)C(=O)OCC2CCCC2)Oc2ccccc2)c(C=O)c1O (stereo partly drawn) [Compound 16x, (2S)-Cyclopentylmethyl 2-(((4-formyl-5-hydroxy-6-methylpyridin-3-yl)methoxy)(phenoxy)phosphorylamino)propanoate]
P5P formed: 1.95 µM
relative P5P formed: 121.9%

Cc1ncc(COP(=O)(N[C@@H](C)C(=O)Oc2ccc(Cl)cc2)Oc2ccccc2)c(C=O)c1O (stereo partly drawn) [Compound 16xL, (2S)-4-Chlorophenyl 2-(((4-formyl-5-hydroxy-6-methylpyridin-3-yl)methoxy)(phenoxy)phosphorylamino)propanoate]
P5P formed: 3.6 µM
relative P5P formed: 171.4%

Cc1ncc(COP(=O)(NC(CC(F)(F)F)C(=O)OC(C)C)Oc2ccccc2)c(C=O)c1O (stereo not drawn) [Compound 16xi, Isopropyl 4,4,4-trifluoro-2-(((4-formyl-5-hydroxy-6-methylpyridin-3-yl)methoxy)(phenoxy)phosphorylamino)butanoate]
P5P formed: 0.6 µM
relative P5P formed: 15.8%

Cc1ncc(COP(=O)(N[C@@H](Cc2cn(C(=O)OC(C)(C)C)c3ccccc23)C(=O)OC(C)C)Oc2ccccc2)c(C=O)c1O (stereo partly drawn) [Compound 16xiii, Tert-butyl 3-((2S)-2-(((4-formyl-5-hydroxy-6-methylpyridin-3-yl)methoxy)(phenoxy)phosphorylamino)-3-isopropoxy-3-oxopropyl)-1H-indole-1-carboxylate]
P5P formed: 0.3 µM
relative P5P formed: 7.9%

Cc1ncc(COP(=O)(N[C@@H](C)C(=O)Oc2ccc3ccccc3c2)Oc2ccccc2)c(C=O)c1O (stereo partly drawn) [Compound 16xiv, (2S)-Naphthalen-2-yl 2-(((4-formyl-5-hydroxy-6-methylpyridin-3-yl)methoxy)(phenoxy)phosphorylamino)propanoate]
stability in DMSO (stock solution): unstable in DMSO

Cc1ncc(COP(=O)(NCC(=O)OC(C)C)Oc2ccccc2)c(C=O)c1O (stereo not drawn) [Compound 16xv, Isopropyl 2-(((4-formyl-5-hydroxy-6-methylpyridin-3-yl)methoxy)(phenoxy)phosphorylamino)acetate]
stability in DMSO (stock solution): unstable in DMSO

[2H]c1c([2H])c([2H])c(OP(=O)(N[C@@H](C)C(=O)OC(C)C)OCc2cnc(C)c(O)c2C=O)c([2H])c1[2H] (stereo partly drawn) [Compound 16xx]
P5P formed: 1.4 µM
relative P5P formed: 38.9%

[2H]C([2H])([2H])C([2H])(OC(=O)[C@H](C)NP(=O)(OCc1cnc(C)c(O)c1C=O)Oc1ccccc1)C([2H])([2H])[2H] (stereo partly drawn) [Compound 16xxi]
P5P formed: 0.3 µM
relative P5P formed: 17.6%

[2H]C([2H])([2H])C(OC(=O)[C@H](C)NP(=O)(OCc1cnc(C)c(O)c1C=O)Oc1ccccc1)C([2H])([2H])[2H] (stereo partly drawn) [Compound 16xxii]
P5P formed: 6.3 µM
relative P5P formed: 153.7%

Cc1ccc(OC(=O)[C@H](C)NP(=O)(OCc2cnc(C)c(O)c2C=O)Oc2ccccc2)cc1 (stereo partly drawn) [Compound 16xxiii, (2S)-p-Tolyl 2-(((4-formyl-5-hydroxy-6-methylpyridin-3-yl)methoxy)(phenoxy)phosphorylamino)propanoate]
P5P formed: 2 µM
relative P5P formed: 74.1%

Cc1ncc(COP(=O)(N[C@@H](C)C(=O)OC2CCCC2)Oc2ccccc2)c(C=O)c1O (stereo partly drawn) [Compound 16xxiv, (2S)-Cyclopentyl 2-(((4-formyl-5-hydroxy-6-methylpyridin-3-yl)methoxy)(phenoxy)phosphorylamino)propanoate]
P5P formed: 2.2 µM
relative P5P formed: 129.4%

Cc1ncc(COP(=O)(N[C@@H](Cc2ccc(OCc3ccccc3)cc2)C(=O)OC(C)C)Oc2ccccc2)c(C=O)c1O (stereo partly drawn) [Compound 16xxix, (2S)-Isopropyl 3-(4-(benzyloxy)phenyl)-2-(((4-formyl-5-hydroxy-6-methylpyridin-3-yl)methoxy)(phenoxy)phosphorylamino)propanoate]
P5P formed: 2.4 µM
relative P5P formed: 58.5%

[2H]C([2H])(OP(=O)(N[C@@H](C)C(=O)OC(C)C)Oc1ccccc1)c1cnc(C)c(O)c1C=O (stereo partly drawn) [Compound 16xxvii]
P5P formed: 2 µM
relative P5P formed: 69.0%

Cc1ncc(COP(=O)(N[C@H](C(=O)OC(C)C)C2CCCC2)Oc2ccccc2)c(C=O)c1O (stereo partly drawn) [Compound 16xxviii, (2S)-Isopropyl 2-cyclopentyl-2-(((4-formyl-5-hydroxy-6-methylpyridin-3-yl)methoxy)(phenoxy)phosphorylamino)acetate]
P5P formed: 0.4 µM
relative P5P formed: 9.8%

Cc1ncc(COP(=O)(N[C@@H](Cc2ccc(O)cc2)C(=O)OC(C)C)Oc2ccccc2)c(C=O)c1O (stereo partly drawn) [Compound 16xxx, (2S)-Isopropyl 2-(((4-formyl-5-hydroxy-6-methylpyridin-3-yl)methoxy)(phenoxy)phosphorylamino)-3-(4-hydroxyphenyl)propanoate]
P5P formed: 2.2 µM
relative P5P formed: 75.9%

Cc1ncc(COP(=O)(N[C@@H](C)C(=O)OC2CCN(C)CC2)Oc2ccccc2)c(C=O)c1O (stereo partly drawn) [Compound 16xxxi, (2S)-1-Methylpiperidin-4-yl 2-(((4-formyl-5-hydroxy-6-methylpyridin-3-yl)methoxy)(phenoxy)phosphorylamino)propanoate]
P5P formed: 0.4 µM
relative P5P formed: 13.8%

COCCOC(=O)[C@H](C)NP(=O)(OCc1cnc(C)c(O)c1C=O)Oc1ccccc1 (stereo partly drawn) [Compound 16xxxii, (2S)-2-Methoxyethyl 2-(((4-formyl-5-hydroxy-6-methylpyridin-3-yl)methoxy)(phenoxy)phosphorylamino)propanoate]
P5P formed: 4.9 µM
relative P5P formed: 144.1%

COC(=O)[C@@H]1CCCN1P(=O)(OCc1cnc(C)c(O)c1C=O)Oc1ccccc1 (stereo partly drawn) [Compound 16xxxiii, (2S)-Methyl 1-(((4-formyl-5-hydroxy-6-methylpyridin-3-yl)methoxy)(phenoxy)phosphoryl)pyrrolidine-2-carboxylate]
P5P formed: 0.4 µM
relative P5P formed: 11.8%

Cc1ncc(COP(=O)(N[C@@H](C)C(=O)Oc2ccc3c(c2)CCCC3)Oc2ccccc2)c(C=O)c1O (stereo partly drawn) [Compound 16xxxiv, (2S)-5,6,7,8-Tetrahydronaphthalen-2-yl 2-(((4-formyl-5-hydroxy-6-methylpyridin-3-yl)methoxy)(phenoxy)phosphorylamino)propanoate]
P5P formed: 4.9 µM
relative P5P formed: 144.1%

Cc1ncc(COP(=O)(N[C@@H](C)C(=O)OC(C)C)Oc2ccc(Br)cc2F)c(C=O)c1O (stereo partly drawn) [Compound 16xxxix, (2S)-Isopropyl 2-((4-bromo-2-fluorophenoxy)((4-formyl-5-hydroxy-6-methylpyridin-3-yl)methoxy)phosphorylamino)propanoate]
P5P formed: 2.3 µM
relative P5P formed: 92.0%

Cc1ncc(CO[P@@](=O)(N[C@@H](C)C(=O)OC(C)C)Oc2ccccc2)c(/C=N/C2CCCC2)c1O [Compound 16xxxvi, (S)-Isopropyl 2-((S)-((4-((E)-(cyclopentylimino)methyl)-5-hydroxy-6-methylpyridin-3-yl)methoxy)(phenoxy)phosphorylamino)propanoate]
P5P formed: 3.8 µM
relative P5P formed: 152.0%

Cc1ccc(OP(=O)(N[C@@H](C)C(=O)OC(C)C)OCc2cnc(C)c(O)c2C=O)cc1 (stereo partly drawn) [Compound 16xxxvii, (2S)-Isopropyl 2-(((4-formyl-5-hydroxy-6-methylpyridin-3-yl)methoxy)(p-tolyloxy)phosphorylamino)propanoate]
P5P formed: 0.3 µM
relative P5P formed: 12.0%

Cc1ncc(COP(=O)(N[C@@H](C)C(=O)OCc2ccccc2)Oc2ccccc2)c(/C=N/CCc2ccc(C#N)cc2)c1O (stereo partly drawn) [Compound 16xxxviii, (2S)-Benzyl 2-(((4-((E)-(4-cyanophenethylimino)methyl)-5-hydroxy-6-methylpyridin-3-yl)methoxy)(phenoxy)phosphorylamino)propanoate]
P5P formed: 0.5 µM
relative P5P formed: 14.7%
